# Source: patent US8293736B2, “Purine compounds selective for PI3K P110 delta, and methods of use” (F. Hoffmann la Roche AG, priority 2010, dated 2012)
# Assays:
# p110 alpha = target: T1, p110 alpha (Homo sapiens, UniProt P42336); test: PI3K isoform inhibition assay (fluorescence polarization), p110 alpha; assay type: biochemical; details: delta/alpha selectivity ratio
# T1 construct: purchased Upstate Group, Millipore; Dundee, UK
# Procedure: (§1) Determination of the activity of PI3 kinase activity of Formula I compounds is possible by a number of direct and indirect detection methods.
# (§2) PI3K enzymatic activity was assayed by measuring the amount of product phosphatidylinositol 3,4,5-phosphate (PIP3) formed from substrate 4,5 phosphatidylinositol 4,5-phosphate (PIP2) using a fluorescence polarization displacement assay. The decrease in fluorescence polarization of a fluorescent PIP3 probe is measured as it is displaced from a PIP3-binding protein GRP-1 detector by PI3K-catalyzed product. […] The kinase reactions were initiated by the addition of 40 ng/mL p110α/p85α, 300 ng/mL p110β/p85α, 40 ng/mL p110γ, or 40 ng/mL p110δ/p85α (Upstate Group, Millipore; Dundee, UK), and 10 μM PIP2 (Echelon Biosciences) to the wells. […] After 60 minutes of incubation at room temperature to allow equilibration of labeled and unlabeled PIP3 binding, the parallel and perpendicular components of the fluorescence emissions from each sample were measured at an excitation wavelength of 530 nm and an emission wavelength of 590 nm using an Envision fluorescent plate reader with a rhodamine filter (PerkinElmer Life and Analytical Sciences; Wellesley, Mass.). The assay is capable of detecting 0.1-2.0 μM PIP3 product. The Ki apparent values were obtained by fitting the dose-dependent inhibition data to the Morrison equation for tight-binding, competitive inhibitors. Reference: R. A. Copeland, Enzymes. “A Practical Introduction to Structure, Mechanism and Data Analysis”.
# The same protocol may be used to establish Ki values for p110α (alpha) PI3K binding.
# The four Class I PI 3-kinases are cloned into baculovirus vectors as follows: […]
# [1] = test system: production of CD69 by B lymphocytes in human whole blood; test: CD69 Whole Blood Assay; assay type: cell-based; details: Lymphocyte; human whole blood activated with goat F(ab')2 anti-human IgM, 20 hours
# From the text: There is good evidence that B-cells play a key role in the pathogenesis of autoimmune and/or inflammatory disease. Protein-based therapeutics that deplete B cells such as Rituxan are effective against autoantibody-driven inflammatory diseases such as rheumatoid arthritis (Rastetter et al. (2004) Annu Rev Med 55:477). CD69 is the early activation marker in leukocytes including T cells, thymocytes, B cells, NK cells, neutrophils, and eosinophils. The CD69 human whole blood assay (Example 903) determines the ability of compounds to inhibit the production of CD69 by B lymphocytes in human whole blood activated by crosslinking surface IgM with goat F(ab′)2 anti-human IgM.
# Human blood is obtained from healthy volunteers, with the following restrictions: 1 week drug-free, non-smokers. Blood (approximately 20 mls to test 8 compounds) is collected by venipuncture into Vacutainer tubes with sodium heparin.
# Solutions of Formula I compounds at 1000 or 2000 μM in PBS (20×), are diluted by three-fold serial dilutions in 10% DMSO in PBS for a nine point dose-response curve. An aliquot of 5.5 μl of each compound is added in duplicate to a 2 ml 96-well plate; 5.5 μl of 10% DMSO in PBS is added as control and no-stimulus wells. Human whole blood—HWB (100 μl) is added to each well. After mixing the plates are incubated at 37° C., 5% CO2, 100% humidity for 30 minutes. Goat F(ab′)2 anti-human IgM (10 μl of a 500 μg/ml solution, 50 μg/ml final) is added to each well (except the no-stimulus wells) with mixing and the plates are incubated for an additional 20 hours. At the end of the 20 hour incubation, samples are incubated with fluorescent labeled antibodies for 30 minutes, at 37° C., 5% CO2, 100% humidity. Include induced control, unstained and single stains for compensation adjustments and initial voltage settings. Samples are then lysed with Pharmingen Lyse™ according to the manufacturer's instructions. Samples are then transferred to a 96 well plate suitable to be run on the AMS 96 well system on the BD Calibur FACS cell sorter instrument. Data acquired and Mean Fluorescence Intensity values were obtained using Cell Quest Software. Results are initially analyzed by FACS analysis software (Flow Jo). The IC50 values are calculated by ActivityBase™ using Xlfit™ version 3, equation 201.
# p110 delta = target: T2, p110 delta (Homo sapiens, UniProt O00329); test: PI3K isoform inhibition assay (fluorescence polarization), p110 delta; assay type: biochemical; details: Ki apparent, Morrison equation; 25 μM ATP, 10 μM PIP2
# T2 construct: purchased Upstate Group, Millipore; Dundee, UK
# Procedure: as §1, §2
# The Formula I compound was serially diluted in 100% DMSO. The kinase reaction was incubated for 1 h at room temperature, and the reaction was terminated by the addition of PBS. IC50 values were subsequently determined using sigmoidal dose-response curve fit (variable slope). […]
# T2 sequence (O00329 whole entry, canonical isoform): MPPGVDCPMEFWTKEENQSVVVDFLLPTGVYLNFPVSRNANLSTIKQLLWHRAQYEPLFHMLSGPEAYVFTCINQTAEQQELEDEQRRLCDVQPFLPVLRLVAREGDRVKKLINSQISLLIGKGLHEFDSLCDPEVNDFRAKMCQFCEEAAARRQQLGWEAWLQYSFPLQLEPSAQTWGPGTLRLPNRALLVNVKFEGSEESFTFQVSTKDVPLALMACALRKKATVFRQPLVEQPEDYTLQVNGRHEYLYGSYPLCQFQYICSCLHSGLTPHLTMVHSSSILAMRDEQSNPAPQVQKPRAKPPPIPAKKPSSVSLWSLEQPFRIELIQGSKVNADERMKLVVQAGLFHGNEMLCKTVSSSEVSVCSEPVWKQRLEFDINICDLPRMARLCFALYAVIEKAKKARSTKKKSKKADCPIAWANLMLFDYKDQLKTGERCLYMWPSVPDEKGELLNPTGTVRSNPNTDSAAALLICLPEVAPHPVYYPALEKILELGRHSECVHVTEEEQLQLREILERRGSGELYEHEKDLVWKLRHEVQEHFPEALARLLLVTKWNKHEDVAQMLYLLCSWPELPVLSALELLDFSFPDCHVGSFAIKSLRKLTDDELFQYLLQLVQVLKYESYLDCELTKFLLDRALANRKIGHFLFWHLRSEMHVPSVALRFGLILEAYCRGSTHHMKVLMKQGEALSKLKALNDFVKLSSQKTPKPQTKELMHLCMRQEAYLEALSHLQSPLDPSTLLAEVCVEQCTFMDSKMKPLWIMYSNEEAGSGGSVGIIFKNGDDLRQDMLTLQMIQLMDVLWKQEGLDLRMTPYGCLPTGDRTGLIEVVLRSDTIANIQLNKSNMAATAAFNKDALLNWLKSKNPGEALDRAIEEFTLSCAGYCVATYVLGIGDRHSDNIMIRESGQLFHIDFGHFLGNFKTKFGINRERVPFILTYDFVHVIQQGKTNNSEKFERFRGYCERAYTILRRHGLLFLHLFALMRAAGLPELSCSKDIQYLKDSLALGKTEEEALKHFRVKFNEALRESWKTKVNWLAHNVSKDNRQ
# T2 sequence (P27986 whole entry partner, canonical isoform): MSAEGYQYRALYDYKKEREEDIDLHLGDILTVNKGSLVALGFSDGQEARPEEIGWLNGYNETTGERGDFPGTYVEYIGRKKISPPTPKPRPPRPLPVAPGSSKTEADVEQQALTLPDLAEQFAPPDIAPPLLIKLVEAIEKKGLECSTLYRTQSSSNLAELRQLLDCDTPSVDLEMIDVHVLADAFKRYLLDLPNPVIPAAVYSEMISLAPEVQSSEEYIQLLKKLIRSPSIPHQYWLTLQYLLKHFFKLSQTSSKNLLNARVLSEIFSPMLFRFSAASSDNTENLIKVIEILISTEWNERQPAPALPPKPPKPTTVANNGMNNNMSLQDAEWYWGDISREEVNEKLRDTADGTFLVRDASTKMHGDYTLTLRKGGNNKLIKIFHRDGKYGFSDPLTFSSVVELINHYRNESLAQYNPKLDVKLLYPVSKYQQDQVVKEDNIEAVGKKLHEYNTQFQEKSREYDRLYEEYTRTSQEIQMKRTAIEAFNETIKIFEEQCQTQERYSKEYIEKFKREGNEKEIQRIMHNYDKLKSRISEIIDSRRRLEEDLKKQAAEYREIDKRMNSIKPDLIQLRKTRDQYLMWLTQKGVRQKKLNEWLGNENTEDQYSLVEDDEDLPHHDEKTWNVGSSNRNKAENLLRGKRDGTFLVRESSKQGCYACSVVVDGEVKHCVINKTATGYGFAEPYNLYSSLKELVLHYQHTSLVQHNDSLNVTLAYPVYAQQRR
# T1 sequence (P42336 whole entry, species assumed, canonical isoform): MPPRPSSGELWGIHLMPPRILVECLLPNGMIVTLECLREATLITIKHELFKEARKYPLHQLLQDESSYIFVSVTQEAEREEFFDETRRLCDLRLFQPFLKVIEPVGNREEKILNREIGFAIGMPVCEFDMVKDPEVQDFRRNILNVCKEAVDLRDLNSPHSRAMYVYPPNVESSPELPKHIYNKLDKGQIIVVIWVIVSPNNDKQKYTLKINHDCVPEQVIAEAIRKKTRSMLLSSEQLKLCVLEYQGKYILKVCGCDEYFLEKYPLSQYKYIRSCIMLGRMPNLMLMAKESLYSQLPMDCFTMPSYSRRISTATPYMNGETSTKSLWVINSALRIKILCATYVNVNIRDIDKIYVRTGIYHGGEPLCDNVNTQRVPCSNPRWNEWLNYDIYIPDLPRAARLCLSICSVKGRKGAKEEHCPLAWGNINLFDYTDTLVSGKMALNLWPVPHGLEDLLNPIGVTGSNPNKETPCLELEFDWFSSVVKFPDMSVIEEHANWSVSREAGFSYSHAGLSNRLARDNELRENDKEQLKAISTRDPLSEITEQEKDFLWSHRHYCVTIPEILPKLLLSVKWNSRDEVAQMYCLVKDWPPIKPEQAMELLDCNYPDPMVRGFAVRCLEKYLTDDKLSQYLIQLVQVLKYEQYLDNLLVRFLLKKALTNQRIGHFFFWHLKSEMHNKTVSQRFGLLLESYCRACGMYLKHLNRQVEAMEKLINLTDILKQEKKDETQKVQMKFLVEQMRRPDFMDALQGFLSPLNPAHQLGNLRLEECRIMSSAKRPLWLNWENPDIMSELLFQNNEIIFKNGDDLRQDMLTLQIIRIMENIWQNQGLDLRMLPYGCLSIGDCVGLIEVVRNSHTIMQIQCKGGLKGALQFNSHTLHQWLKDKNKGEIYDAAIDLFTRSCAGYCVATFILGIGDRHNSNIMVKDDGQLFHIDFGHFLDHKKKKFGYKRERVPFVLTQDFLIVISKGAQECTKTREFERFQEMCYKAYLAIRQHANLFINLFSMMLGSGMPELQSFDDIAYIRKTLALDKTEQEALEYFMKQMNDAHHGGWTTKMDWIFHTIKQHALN
# T1 sequence (P27986 whole entry partner, species assumed, canonical isoform): as the sequence (P27986 whole entry partner, canonical isoform) above
Structure (SMILES),Ki p110 alpha/ Ki p110 delta (p110 alpha),IC50 [1] [nM],Ki (p110 delta) [nM]
"CC(C)c1nc2ccccc2n1-c1nc(N2CCOCC2)c2nc(OC3CN(C4CCS(=O)(=O)CC4)C3)n(C)c2n1 [Compound 103, 4-(2-(2-isopropyl-1H-benzo[d]imidazol-1-yl)-9-methyl-8-(1-(1,1-dioxo-tetrahydro-2H-thiopyran-4-yl)azetidin-3-yloxy)-9H-purin-6-yl)morpholine]",256,3,0.464
"CC(C)c1nc2ccccc2n1-c1nc(N2CCOCC2)c2nc(OC3CN(CC(C)(C)O)C3)n(C)c2n1 [Compound 105, 1-(3-(2-(2-isopropyl-1H-benzo[d]imidazol-1-yl)-9-methyl-6-morpholino-9H-purin-8-yloxy)azetidin-1-yl)-2-methylpropan-2-ol]",93,28.1,2.03
"CCc1nc2ccccc2n1-c1nc(N2CCOCC2)c2nc(OC3CN(C(=O)C(C)C)C3)[nH]c2n1 [Compound 128, 1-(3-(2-(2-ethyl-1H-benzo[d]imidazol-1-yl)-6-morpholino-9H-purin-8-yloxy)azetidin-1-yl)-2-methylpropan-1-one]",141,15.9,0.629

# Other lines, results leading:
Ki p110 alpha/ Ki p110 delta (p110 alpha),IC50 [1] [nM],Ki (p110 delta) [nM],Structure (SMILES)
78,35.4,1.84,"CCc1nc2ccccc2n1-c1nc(N2CCOCC2)c2nc(OC3CCN(C4CCOCC4)CC3)n(C)c2n1 [Compound 101, 4-(2-(2-ethyl-1H-benzo[d]imidazol-1-yl)-9-methyl-8-(1-(tetrahydro-2H-pyran-4-yl)piperidin-4-yloxy)-9H-purin-6-yl)morpholine]"
173,8.3,0.38,"CC(C)C(=O)N1CC(Oc2nc3c(N4CCOCC4)nc(-n4c(C(C)C)nc5ccccc54)nc3n2C)C1 [Compound 107, 1-(3-(2-(2-isopropyl-1H-benzo[d]imidazol-1-yl)-9-methyl-6-morpholino-9H-purin-8-yloxy)azetidin-1-yl)-2-methylpropan-1-one]"
180,14.6,3.65,"CC(C)C(=O)N1CC(Oc2nc3c(N4CCOCC4)nc(-n4c(N(C)C)nc5ccccc54)nc3n2C)C1 [Compound 131, 1-(3-(2-(2-(dimethylamino)-1H-benzo[d]imidazol-1-yl)-9-methyl-6-morpholino-9H-purin-8-yloxy)azetidin-1-yl)-2-methylpropan-1-one]"
27,10.8,8.53,"CCc1nc2ccccc2n1-c1nc(N2CCOCC2)c2nc(OC3CNC3)n(C)c2n1 [Compound 133, 4-(8-(azetidin-3-yloxy)-2-(2-ethyl-1H-benzo[d]imidazol-1-yl)-9-methyl-9H-purin-6-yl)morpholine]"
